Legend:
[1] = tested on: primary cultured retinal cells; assay: Cell viability (MTS assay) of primary cultured retinal cells; conditions: 24 hours
Protocol: Retinas were isolated by eye enucleation from C57BL/6 mice (Orient Bio, Seoul, Korea) and dissociated with papain for 15 minutes at 37° C. Neuronal basal medium (Gibco) containing ovomucoid (Sigma Aldrich) and DNase (Sigma Aldrich) was added, and cells were centrifuged at 100×g for 8 min. Cells were resuspended in the above medium without DNase. Retinal cells were maintained in neurobasal medium with L-glutamine and B27 supplement (Gibco). Retinal cells were identified by immunostaining for rhodopsin (a marker for membrane photoreceptor cells) and glial fibrillary acidic protein (Muller glia). The cultured cells contained 65% rod photoreceptor cells and 28% Muller glia. Retinal cells were plated (1*10^4 cells/well) in 96-well plates for 24 hours, and the medium was exchanged with different concentrations of aucubin in the presence or absence of MNU (100 μg/mL) and cultured for 24 hours. Cell viability was then examined using a cell proliferation assay reagent (MTS assay kit, Promega Corporation, Madison, WI, USA).

[2] = tested on: N-methyl-N-nitrosourea (MNU)-induced photoreceptor cell degeneration mouse; assay: Electroretinogram (ERG) in MNU-induced photoreceptor cell degeneration mouse; type: in vivo, C57BL/6 mice; conditions: MNU 60 mg/kg intraperitoneally, mice
Protocol: (§1) Six-week-old male C57BL/6 mice were purchased from Orient (Seongnam, Korea) and used after acclimatization for 1 week. N-methyl-N-nitrosourea (MNU, Sigma, USA) was prepared to a concentration of 1% in 0.05% acetic acid solution to induce damage and degeneration of photoreceptor cells among the morphologic changes in retinal tissue seen in macular degeneration, and 7-week-old male C57BL/6 mice were administered 1% MNU solution intraperitoneally at 60 mg/kg per animal. In the normal group, only an equivalent amount of 0.05% acetic acid was administered intraperitoneally. Aucubin was prepared by dissolving in sterile tertiary distilled water to a concentration of 15 mg/kg/day and administered orally once daily for 7 days starting on the same day as MNU administration. An electroretinogram (ERG) is a record of the electrical signals generated by the optic nerve in response to light and is used as an indicator of retinal damage or disease. The inventors measured the electroretinogram. […] After the pupils were dilated, an appropriate amount of 1% methylcellulose was applied to the eyes while maintaining body temperature, and a gold wire loop recording electrode was grounded to the cornea, a reference electrode was placed on the cheek area, and a ground electrode was grounded to the tail, and the ERG was measured using a Retiport (Roland consult, Germany). […]

[3] = tested on: N-methyl-N-nitrosourea (MNU)-induced photoreceptor cell degeneration mouse; assay: TUNEL staining of retinal sections (anti-apoptotic effect); type: in vivo, C57BL/6 mice; conditions: aucubin 15 mg/kg/day orally for 7 days; versus MNU-treated group
Protocol: as §1, with “An electroretinogram (ERG) is a record of the electrical signals generated by the optic nerve in response to light and is used as an indicator of retinal damage or disease.” left out
Retinal sections were made 4 μm thick. […] In the MNU-treated group, a number of apoptotic cells were observed, but these were mainly detected in the outer nuclear layer.

[4] = tested on: N-methyl-N-nitrosourea (MNU)-induced photoreceptor cell degeneration mouse; assay: 8-OHdG immunohistochemical staining of retinal sections (antioxidant effect); type: in vivo, C57BL/6 mice; conditions: aucubin 15 mg/kg/day orally for 7 days; compared to the MNU-treated group
Protocol: as §1, with “Aucubin was prepared by dissolving in sterile tertiary distilled water to a concentration of 15 mg/kg/day and administered orally once daily for 7 days starting on the same day as MNU administration. An electroretinogram (ERG) is a record of the electrical signals generated by the optic nerve in response to light and is used as an indicator of retinal damage or disease.” left out
The formation of 8-hydroxydeoxyguanosine (8-OHdG) induced by the oxidation of guanine is a well-known marker for oxidative DNA damage. […] The Invision kit (DAKO, Carpinteria, CA, USA) detected signals visualized with aminoethylcarbazole. […]

[5] = tested on: primary cultured retinal cells; assay: Oxidative stress (DCFH fluorescent probe) in primary cultured retinal cells; type: cell-based, C57BL/6 mice; conditions: aucubin in presence of MNU 100 μg/mL, 24 hours
[6] = tested on: N-methyl-N-nitrosourea (MNU)-induced photoreceptor cell degeneration mouse; assay: Histopathology (H&E), outer nuclear layer thickness of retinal tissue; type: in vivo, C57BL/6 mice; conditions: aucubin 15 mg/kg/day orally for 7 days; MNU 60 mg/kg intraperitoneally
Protocol: as §1, with “Aucubin was prepared by dissolving in sterile tertiary distilled water to a concentration of 15 mg/kg/day and administered orally once daily for 7 days starting on the same day as MNU administration. An electroretinogram (ERG) is a record of the electrical signals generated by the optic nerve in response to light and is used as an indicator of retinal damage or disease.” left out
After the end of study drug (aucubin) administration, necropsy was performed and the eyes were enucleated, fixed in 10% neutralized formalin for 1 day, and embedded in paraffin to prepare slide sections. […] Photoreceptor cell damage & deformation was assessed by measuring the change in thickness of the outer nuclear layer (ONL) of retinal tissue. […]

[7] = tested on: primary cultured retinal cells; assay: Apoptosis (TUNEL staining) in primary cultured retinal cells; type: cell-based, C57BL/6 mice; conditions: aucubin in presence of MNU 100 μg/mL, 24 hours
Protocol: Cells were resuspended in the above medium without DNase. […] MNU treatment was cytotoxic in retinal cells. […] Apoptotic cells were measured by TUNEL staining.

Structure (SMILES): CN(N=O)C(N)=O [MNU, N-methyl-N-nitrosourea]
- cell viability compared to control cells ([1]; 100 μg/ml MNU alone): approximately 70%
- reduction of a-wave amplitude [2]: 78%
- reduction of b-wave amplitude [2]: 63%

Structure (SMILES): OCC1=C[C@@H](O)[C@@H]2C=CO[C@@H](O[C@@H]3O[C@H](CO)[C@@H](O)[C@H](O)[C@H]3O)[C@H]12 [aucubin]
- photoreceptor cell death (TUNEL-positive apoptotic cells) in retina [3]: significantly prevented this cell death
- 8-OHdG levels (oxidative DNA damage) in retina [4]: significantly reduced
- oxidative stress (DCFH dye) [5]: significantly decreased
- reduction of photoreceptor cell loss (ONL thickness) [6]: 9.8%+2.9%
- apoptotic cells (TUNEL staining) [7]: significantly decreased
- cell viability in presence of MNU ([1]; various concentrations of aucubin, MNU 100 μg/mL): cell viability was restored in a dose-dependent manner

— patent US20240299433A1, “PHARMACEUTICAL COMPOSITION CONTAINING AUCUBIN FOR PREVENTING OR TREATING MACULAR DEGENERATION” (INDUSTRIAL COOPERATION FOUNDATION JEONBUK NATIONAL …, priority 2019, published 2024)
